Measurements: the NIST ThermoML archive (doi:10.1021/acs.jced.8b00132)
Several values for one entry are separate records, joined by “and”; a condition that tells them apart may be missing. Equal entries are not always repeated. Numbers after ± are expanded uncertainties.

Conditions: Liquid, transient hot wire

In the case of O=C(C(F)(F)C(F)(F)F)C(F)(C(F)(F)F)C(F)(F)F [dodecafluoro-2-methylpentan-3-one], the thermal conductivity (212.68 K, 43023 kPa) is reported as 0.08262 ± 0.0017 W/m/K, the thermal conductivity (212.69 K, 34811 kPa) is reported as 0.08103 ± 0.0017 W/m/K and the thermal conductivity (212.7 K, 26854 kPa) is reported as 0.0791 ± 0.0016 W/m/K. The thermal conductivity (212.7 K, 34796 kPa) was 0.08096 ± 0.0017 W/m/K, the thermal conductivity (212.71 K, 19432 kPa) was 0.07795 ± 0.0016 W/m/K and the thermal conductivity (212.71 K, 26846 kPa) was 0.07958 ± 0.0016 W/m/K. The thermal conductivity (212.72 K, 19443 kPa) was 0.07837 ± 0.0016 W/m/K, the thermal conductivity (212.73 K, 12670 kPa) was 0.07626 ± 0.0016 W/m/K and the thermal conductivity (212.73 K, 12671 kPa) was 0.0764 ± 0.0016 W/m/K. The thermal conductivity (212.75 K, 5793 kPa) was 0.07492 ± 0.0015 W/m/K, the thermal conductivity (212.75 K, 5801 kPa) was 0.0748 ± 0.0015 W/m/K and the thermal conductivity (212.77 K, 172 kPa) was 0.07396 ± 0.0015 W/m/K. For the same compound, the thermal conductivity (212.79 K, 181 kPa) was 0.07378 ± 0.0015 W/m/K, the thermal conductivity (213.1 K, 67106 kPa) was 0.08599 ± 0.0018 W/m/K and 0.08628 ± 0.0018 W/m/K and the thermal conductivity (213.11 K, 60772 kPa) was 0.08539 ± 0.0018 W/m/K. It also gave a thermal conductivity (213.11 K, 60780 kPa) of 0.08539 ± 0.0018 W/m/K, a thermal conductivity (213.13 K, 52081 kPa) of 0.08389 ± 0.0017 W/m/K and a thermal conductivity (213.13 K, 52089 kPa) of 0.08383 ± 0.0017 W/m/K. It also gave a thermal conductivity (213.19 K, 43027 kPa) of 0.08245 ± 0.0017 W/m/K, a thermal conductivity (213.19 K, 43036 kPa) of 0.08268 ± 0.0017 W/m/K and a thermal conductivity (213.21 K, 34805 kPa) of 0.08073 ± 0.0017 W/m/K. For the same compound, the thermal conductivity (213.21 K, 34810 kPa) was 0.08114 ± 0.0017 W/m/K, the thermal conductivity (213.23 K, 26845 kPa) was 0.07947 ± 0.0016 W/m/K and the thermal conductivity (213.24 K, 26846 kPa) was 0.07959 ± 0.0016 W/m/K. It also gave a thermal conductivity (213.25 K, 19430 kPa) of 0.07775 ± 0.0016 W/m/K, a thermal conductivity (213.25 K, 19435 kPa) of 0.0774 ± 0.0016 W/m/K and a thermal conductivity (213.27 K, 12661 kPa) of 0.07617 ± 0.0016 W/m/K. It also gave a thermal conductivity (213.28 K, 12679 kPa) of 0.0761 ± 0.0016 W/m/K, a thermal conductivity (213.31 K, 5806 kPa) of 0.07469 ± 0.0015 W/m/K and a thermal conductivity (213.31 K, 5813 kPa) of 0.07468 ± 0.0015 W/m/K. For the same compound, the thermal conductivity (213.33 K, 173 kPa) was 0.07373 ± 0.0015 W/m/K, the thermal conductivity (213.33 K, 180 kPa) was 0.07364 ± 0.0015 W/m/K and the thermal conductivity (213.62 K, 67087 kPa) was 0.08645 ± 0.0018 W/m/K. It also gave a thermal conductivity (213.63 K, 67097 kPa) of 0.08628 ± 0.0018 W/m/K, a thermal conductivity (213.64 K, 60766 kPa) of 0.08543 ± 0.0018 W/m/K and a thermal conductivity (213.65 K, 60770 kPa) of 0.08553 ± 0.0018 W/m/K. For the same compound, the thermal conductivity (213.67 K, 52073 kPa) was 0.08388 ± 0.0017 W/m/K, the thermal conductivity (213.67 K, 52074 kPa) was 0.08401 ± 0.0017 W/m/K and the thermal conductivity (213.74 K, 43029 kPa) was 0.08234 ± 0.0017 W/m/K. For the same compound, the thermal conductivity (213.75 K, 43019 kPa) was 0.08232 ± 0.0017 W/m/K, the thermal conductivity (241.26 K, 25699 kPa) was 0.0759 ± 0.0016 W/m/K and the thermal conductivity (241.27 K, 25696 kPa) was 0.07599 ± 0.0016 W/m/K. For the same compound, the thermal conductivity (241.32 K, 12027 kPa) was 0.07227 ± 0.0015 W/m/K and 0.07234 ± 0.0015 W/m/K, the thermal conductivity (241.33 K, 18761 kPa) was 0.07423 ± 0.0015 W/m/K and the thermal conductivity (241.33 K, 18763 kPa) was 0.0739 ± 0.0015 W/m/K. The thermal conductivity (241.38 K, 209 kPa) was 0.06892 ± 0.0014 W/m/K and 0.06884 ± 0.0014 W/m/K, the thermal conductivity (241.39 K, 5841 kPa) was 0.07049 ± 0.0014 W/m/K and the thermal conductivity (241.39 K, 5844 kPa) was 0.07044 ± 0.0014 W/m/K. The thermal conductivity (241.62 K, 33678 kPa) was 0.07765 ± 0.0016 W/m/K, the thermal conductivity (241.63 K, 33700 kPa) was 0.07761 ± 0.0016 W/m/K and the thermal conductivity (241.64 K, 41986 kPa) was 0.0795 ± 0.0016 W/m/K. For the same compound, the thermal conductivity (241.65 K, 41994 kPa) was 0.07941 ± 0.0016 W/m/K, the thermal conductivity (241.65 K, 50824 kPa) was 0.0813 ± 0.0017 W/m/K and the thermal conductivity (241.65 K, 50825 kPa) was 0.08126 ± 0.0017 W/m/K. It also gave a thermal conductivity (241.66 K, 60321 kPa) of 0.08312 ± 0.0017 W/m/K, a thermal conductivity (241.66 K, 60336 kPa) of 0.08322 ± 0.0017 W/m/K and a thermal conductivity (241.67 K, 25701 kPa) of 0.07567 ± 0.0016 W/m/K. The thermal conductivity (241.68 K, 25692 kPa) was 0.0752 ± 0.0015 W/m/K, the thermal conductivity (241.68 K, 68451 kPa) was 0.08416 ± 0.0017 W/m/K and the thermal conductivity (241.68 K, 68475 kPa) was 0.0844 ± 0.0017 W/m/K. It also gave a thermal conductivity (241.74 K, 18761 kPa) of 0.07395 ± 0.0015 W/m/K, a thermal conductivity (241.75 K, 12028 kPa) of 0.07237 ± 0.0015 W/m/K and a thermal conductivity (241.75 K, 18761 kPa) of 0.07396 ± 0.0015 W/m/K. For the same compound, the thermal conductivity (241.76 K, 12022 kPa) was 0.07209 ± 0.0015 W/m/K, the thermal conductivity (241.83 K, 210 kPa) was 0.06806 ± 0.0014 W/m/K and the thermal conductivity (241.83 K, 5847 kPa) was 0.06983 ± 0.0014 W/m/K. For the same compound, the thermal conductivity (241.84 K, 211 kPa) was 0.06786 ± 0.0014 W/m/K, the thermal conductivity (241.84 K, 5846 kPa) was 0.07 ± 0.0014 W/m/K and the thermal conductivity (242.08 K, 33680 kPa) was 0.0771 ± 0.0016 W/m/K. The thermal conductivity (242.08 K, 60313 kPa) was 0.08307 ± 0.0017 W/m/K, the thermal conductivity (242.09 K, 33695 kPa) was 0.07709 ± 0.0016 W/m/K and the thermal conductivity (242.09 K, 41985 kPa) was 0.07857 ± 0.0016 W/m/K. It also gave a thermal conductivity (242.09 K, 50804 kPa) of 0.081 ± 0.0017 W/m/K, a thermal conductivity (242.09 K, 50825 kPa) of 0.08098 ± 0.0017 W/m/K and a thermal conductivity (242.1 K, 41988 kPa) of 0.07839 ± 0.0016 W/m/K. The thermal conductivity (242.1 K, 60314 kPa) was 0.08294 ± 0.0017 W/m/K, the thermal conductivity (242.1 K, 68448 kPa) was 0.08374 ± 0.0017 W/m/K and the thermal conductivity (242.11 K, 68433 kPa) was 0.08377 ± 0.0017 W/m/K. It also gave a thermal conductivity (242.14 K, 25700 kPa) of 0.07474 ± 0.0015 W/m/K, a thermal conductivity (242.14 K, 25703 kPa) of 0.07481 ± 0.0015 W/m/K and a thermal conductivity (242.23 K, 18760 kPa) of 0.07343 ± 0.0015 W/m/K. It also gave a thermal conductivity (242.23 K, 18761 kPa) of 0.07341 ± 0.0015 W/m/K, a thermal conductivity (242.24 K, 12027 kPa) of 0.07149 ± 0.0015 W/m/K and a thermal conductivity (242.24 K, 12030 kPa) of 0.07138 ± 0.0015 W/m/K.
